# Experimental data from US9283222B2 (priority 2006, dated 2016).
# Target: Recombinant Human Poly(ADP-Ribose) Polymerase (PARP), PARP-1 (Homo sapiens (Human), UniProt P09874)
# Details: read-out: PARP-1 (Ki); Table 1; text calls the values EC50s
# Sequence of Recombinant Human Poly(ADP-Ribose) Polymerase (PARP), PARP-1 (P09874 whole entry): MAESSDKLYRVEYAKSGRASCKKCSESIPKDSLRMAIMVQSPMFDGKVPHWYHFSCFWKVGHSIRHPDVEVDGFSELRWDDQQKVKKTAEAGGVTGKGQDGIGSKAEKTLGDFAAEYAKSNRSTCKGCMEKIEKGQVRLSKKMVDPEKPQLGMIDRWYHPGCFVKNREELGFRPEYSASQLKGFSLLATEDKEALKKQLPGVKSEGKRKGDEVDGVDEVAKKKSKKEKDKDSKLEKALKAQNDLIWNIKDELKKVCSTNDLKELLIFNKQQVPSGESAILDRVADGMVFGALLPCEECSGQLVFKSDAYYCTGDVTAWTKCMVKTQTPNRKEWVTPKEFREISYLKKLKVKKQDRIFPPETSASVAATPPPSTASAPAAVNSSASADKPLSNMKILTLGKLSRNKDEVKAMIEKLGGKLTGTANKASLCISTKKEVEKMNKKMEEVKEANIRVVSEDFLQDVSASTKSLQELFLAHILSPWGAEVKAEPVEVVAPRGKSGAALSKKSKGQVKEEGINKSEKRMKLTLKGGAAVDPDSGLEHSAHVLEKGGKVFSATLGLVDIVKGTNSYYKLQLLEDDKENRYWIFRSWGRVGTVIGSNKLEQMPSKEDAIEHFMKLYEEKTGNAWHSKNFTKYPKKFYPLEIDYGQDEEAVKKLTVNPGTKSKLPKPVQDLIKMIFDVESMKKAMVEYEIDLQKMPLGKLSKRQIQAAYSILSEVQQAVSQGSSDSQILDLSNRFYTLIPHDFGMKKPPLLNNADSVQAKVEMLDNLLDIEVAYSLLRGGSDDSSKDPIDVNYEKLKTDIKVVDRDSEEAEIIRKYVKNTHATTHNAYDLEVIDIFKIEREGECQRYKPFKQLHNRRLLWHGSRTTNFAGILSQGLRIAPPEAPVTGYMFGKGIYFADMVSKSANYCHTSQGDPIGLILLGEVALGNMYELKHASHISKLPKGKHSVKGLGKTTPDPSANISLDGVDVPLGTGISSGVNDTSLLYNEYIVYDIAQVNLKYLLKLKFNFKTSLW
row,Ki,SMILES
1,2 nM,"O=C(c1cnccn1)N1CCCN(C(=O)c2cc(Cc3n[nH]c(=O)c4c3NCCC4)ccc2F)CC1 [Example 693, 8-(4-fluoro-3-{[4-(pyrazin-2-ylcarbonyl)-1,4-diazepan-1-yl]carbonyl}benzyl)-2,3,4,6-tetrahydropyrido[2,3-d]pyridazin-5(1H)-one]"
2,1.7 nM,"O=C(c1ccco1)N1CCCN(C(=O)c2cc(Cc3n[nH]c(=O)c4c3NCCC4)ccc2F)CC1 [Example 694, 8-(4-fluoro-3-{[4-(2-furoyl)-1,4-diazepan-1-yl]carbonyl}benzyl)-2,3,4,6-tetrahydropyrido[2,3-d]pyridazin-5(1H)-one]"
3,2.5 nM,"O=C(c1cc(Cc2n[nH]c(=O)c3c2NCCC3)ccc1F)N1CCN(c2cncnc2)CC1 [Example 696, 8-{4-fluoro-3-[(4-pyrimidin-5-ylpiperazin-1-yl)carbonyl]benzyl}-2,3,4,6-tetrahydropyrido[2,3-d]pyridazin-5(1H)-one]"
4,2.2 nM,"CN1CCN(C(=O)c2cc(Cc3n[nH]c(=O)c4c3NCCC4)ccc2F)CC1=O [Example 697, 8-{4-fluoro-3-[(4-methyl-3-oxopiperazin-1-yl)carbonyl]benzyl}-2,3,4,6-tetrahydropyrido[2,3-d]pyridazin-5(1H)-one]"
5,11 nM,"CN(C(=O)c1cc(Cc2n[nH]c(=O)c3c2NCCC3)ccc1F)C1CCN(C(=O)OC(C)(C)C)CC1 [Example 698, tert-butyl 4-[{2-fluoro-5-[(5-oxo-1,2,3,4,5,6-hexahydropyrido[2,3-d]pyridazin-8-yl)methyl]benzoyl}(methyl)amino]piperidine-1-carboxylate]"
6,74 nM,"CC(C)(C)OC(=O)N1CCC(NC(=O)c2cc(Cc3n[nH]c(=O)c4c3NCCC4)ccc2F)CC1 [Example 699, tert-butyl 4-({2-fluoro-5-[(5-oxo-1,2,3,4,5,6-hexahydropyrido[2,3-d]pyridazin-8-yl)methyl]benzoyl}amino)piperidine-1-carboxylate]"
7,2.8 nM,"CC(C)(C)OC(=O)NC1CCN(C(=O)c2cc(Cc3n[nH]c(=O)c4c3NCCC4)ccc2F)CC1 [Example 700, tert-butyl 1-{2-fluoro-5-[(5-oxo-1,2,3,4,5,6-hexahydropyrido[2,3-d]pyridazin-8-yl)methyl]benzoyl}piperidin-4-ylcarbamate]"
8,2.3 nM,"O=C(c1cc(Cc2n[nH]c(=O)c3c2NCCC3)ccc1F)N1CCCN(C(=O)[C@@H]2CSCN2)CC1 [Example 701, 8-[4-fluoro-3-({4-[(4R)-1,3-thiazolidin-4-ylcarbonyl]-1,4-diazepan-1-yl}carbonyl)benzyl]-2,3,4,6-tetrahydropyrido[2,3-d]pyridazin-5(1H)-one]"
9,2.1 nM,"O=C(c1cc[nH]n1)N1CCCN(C(=O)c2cc(Cc3n[nH]c(=O)c4c3NCCC4)ccc2F)CC1 [Example 702, 8-(4-fluoro-3-{[4-(1H-pyrazol-3-ylcarbonyl)-1,4-diazepan-1-yl]carbonyl}benzyl)-2,3,4,6-tetrahydropyrido[2,3-d]pyridazin-5(1H)-one]"
10,2.3 nM,"O=C(c1cscn1)N1CCCN(C(=O)c2cc(Cc3n[nH]c(=O)c4c3NCCC4)ccc2F)CC1 [Example 703, 8-(4-fluoro-3-{[4-(1,3-thiazol-4-ylcarbonyl)-1,4-diazepan-1-yl]carbonyl}benzyl)-2,3,4,6-tetrahydropyrido[2,3-d]pyridazin-5(1H)-one]"
11,0.6 nM,"O=C(c1cc[nH]n1)N1CCN(C(=O)c2cc(Cc3n[nH]c(=O)c4c3NCCC4)ccc2F)CC1 [Example 704, 8-(4-fluoro-3-{[4-(1H-pyrazol-3-ylcarbonyl)piperazin-1-yl]carbonyl}benzyl)-2,3,4,6-tetrahydropyrido[2,3-d]pyridazin-5(1H)-one]"
12,1.4 nM,"O=C(c1cscn1)N1CCN(C(=O)c2cc(Cc3n[nH]c(=O)c4c3NCCC4)ccc2F)CC1 [Example 705, 8-(4-fluoro-3-{[4-(1,3-thiazol-4-ylcarbonyl)piperazin-1-yl]carbonyl}benzyl)-2,3,4,6-tetrahydropyrido[2,3-d]pyridazin-5(1H)-one]"
13,5 nM,"CN(C(=O)c1cc(Cc2n[nH]c(=O)c3c2NCCC3)ccc1F)C1CCNCC1 [Example 706, 2-fluoro-N-methyl-5-[(5-oxo-1,2,3,4,5,6-hexahydropyrido[2,3-d]pyridazin-8-yl)methyl]-N-piperidin-4-ylbenzamide]"
14,53 nM,"O=C(NC1CCC(O)CC1)c1cc(Cc2n[nH]c(=O)c3c2NCCC3)ccc1F (stereo not shown) [Example 709, 2-fluoro-N-(4-hydroxycyclohexyl)-5-[(5-oxo-1,2,3,4,5,6-hexahydropyrido[2,3-d]pyridazin-8-yl)methyl]benzamide]"
15,7 nM,"CN(C(=O)c1cc(Cc2n[nH]c(=O)c3c2NCCC3)ccc1F)C1CCN(C(=O)c2cccnc2)CC1 [Example 710, 2-fluoro-N-methyl-5-[(5-oxo-1,2,3,4,5,6-hexahydropyrido[2,3-d]pyridazin-8-yl)methyl]-N-[1-(pyridin-3-ylcarbonyl)piperidin-4-yl]benzamide]"
16,3 nM,"CCN(CCNC(=O)OC(C)(C)C)C(=O)c1cc(Cc2n[nH]c(=O)c3c2CCCC3)ccc1F [Example 711, tert-butyl 2-(ethyl{2-fluoro-5-[(4-oxo-3,4,5,6,7,8-hexahydrophthalazin-1-yl)methyl]benzoyl}amino)ethylcarbamate]"

row,Ki,SMILES
1,4 nM,"CN(C(=O)c1cc(Cc2n[nH]c(=O)c3c2NCCC3)ccc1F)C1CCN(C(=O)c2ccncc2)CC1 [Example 712, 2-fluoro-N-(1-isonicotinoylpiperidin-4-yl)-N-methyl-5-[(5-oxo-1,2,3,4,5,6-hexahydropyrido[2,3-d]pyridazin-8-yl)methyl]benzamide]"
2,1.8 nM,"O=C(NC1CCN(C(=O)c2ccc3[nH]cnc3c2)CC1)c1cc(Cc2n[nH]c(=O)c3c2NCCC3)ccc1F [Example 713, N-[1-(1H-benzimidazol-5-ylcarbonyl)piperidin-4-yl]-2-fluoro-5-[(5-oxo-1,2,3,4,5,6-hexahydropyrido[2,3-d]pyridazin-8-yl)methyl]benzamide]"
3,0.8 nM,"O=C(NCCN1CCCC1=O)c1cc(Cc2n[nH]c(=O)c3c2CCCC3)ccc1F [Example 714, 2-fluoro-5-[(4-oxo-3,4,5,6,7,8-hexahydrophthalazin-1-yl)methyl]-N-[2-(2-oxopyrrolidin-1-yl)ethyl]benzamide]"
4,4 nM,"CN(C(=O)c1cc(Cc2n[nH]c(=O)c3c2NCCC3)ccc1F)C1CCN(C(=O)c2ccco2)CC1 [Example 715, 2-fluoro-N-[1-(2-furoyl)piperidin-4-yl]-N-methyl-5-[(5-oxo-1,2,3,4,5,6-hexahydropyrido[2,3-d]pyridazin-8-yl)methyl]benzamide]"
5,5 nM,"CN(C(=O)c1cc(Cc2n[nH]c(=O)c3c2NCCC3)ccc1F)C1CCN(C(=O)[C@@H]2CSCN2)CC1 [Example 716, 2-fluoro-N-methyl-5-[(5-oxo-1,2,3,4,5,6-hexahydropyrido[2,3-d]pyridazin-8-yl)methyl]-N-{1-[(4R)-1,3-thiazolidin-4-ylcarbonyl]piperidin-4-yl}benzamide]"
6,4 nM,"CN(C(=O)c1cc(Cc2n[nH]c(=O)c3c2NCCC3)ccc1F)C1CCN(C(=O)c2cscn2)CC1 [Example 717, 2-fluoro-N-methyl-5-[(5-oxo-1,2,3,4,5,6-hexahydropyrido[2,3-d]pyridazin-8-yl)methyl]-N-[1-(1,3-thiazol-4-ylcarbonyl)piperidin-4-yl]benzamide]"
7,2.6 nM,"CN(C(=O)c1cc(Cc2n[nH]c(=O)c3c2NCCC3)ccc1F)C1CCN(C(=O)c2cn[nH]c2)CC1 [Example 718, 2-fluoro-N-methyl-5-[(5-oxo-1,2,3,4,5,6-hexahydropyrido[2,3-d]pyridazin-8-yl)methyl]-N-[1-(1H-pyrazol-4-ylcarbonyl)piperidin-4-yl]benzamide]"
8,7 nM,"CCN(CCN)C(=O)c1cc(Cc2n[nH]c(=O)c3c2CCCC3)ccc1F [Example 719, N-(2-aminoethyl)-N-ethyl-2-fluoro-5-[(4-oxo-3,4,5,6,7,8-hexahydrophthalazin-1-yl)methyl]benzamide]"
9,1.4 nM,"O=C(c1ccncc1)N1CCN(C(=O)c2cc(Cc3n[nH]c(=O)c4c3CCCC4)ccc2F)CC1 [Example 720, 4-{4-fluoro-3-[(4-isonicotinoylpiperazin-1-yl)carbonyl]benzyl}-5,6,7,8-tetrahydrophthalazin-1(2H)-one]"
10,3 nM,"CN(C(=O)c1cc(Cc2n[nH]c(=O)c3c2NCCC3)ccc1F)C1CCN(C(=O)c2ccccn2)CC1 [Example 721, 2-fluoro-N-methyl-5-[(5-oxo-1,2,3,4,5,6-hexahydropyrido[2,3-d]pyridazin-8-yl)methyl]-N-[1-(pyridin-2-ylcarbonyl)piperidin-4-yl]benzamide]"
11,1.2 nM,"O=C(c1cccnc1)N1CCN(C(=O)c2cc(Cc3n[nH]c(=O)c4c3CCCC4)ccc2F)CC1 [Example 722, 4-(4-fluoro-3-{[4-(pyridin-3-ylcarbonyl)piperazin-1-yl]carbonyl}benzyl)-5,6,7,8-tetrahydrophthalazin-1(2H)-one]"
12,1.3 nM,"O=C(c1cnc(O)c(Cl)c1)N1CCN(C(=O)c2cc(Cc3n[nH]c(=O)c4c3CCCC4)ccc2F)CC1 [Example 723, 4-[3-({4-[(5-chloro-6-hydroxypyridin-3-yl)carbonyl]piperazin-1-yl}carbonyl)-4-fluorobenzyl]-5,6,7,8-tetrahydrophthalazin-1(2H)-one]"
13,7 nM,"O=C(NC1CCN(C(=O)c2cccnc2)CC1)c1cc(Cc2n[nH]c(=O)c3c2NCCC3)ccc1F [Example 724, 2-fluoro-5-[(5-oxo-1,2,3,4,5,6-hexahydropyrido[2,3-d]pyridazin-8-yl)methyl]-N-[1-(pyridin-3-ylcarbonyl)piperidin-4-yl]benzamide]"
14,5 nM,"CC(C)n1c(C(F)(F)F)nc2cc(C(=O)N3CCN(C(=O)c4cc(Cc5n[nH]c(=O)c6c5CCCC6)ccc4F)CC3)ccc21 [Example 725, 4-{4-fluoro-3-[(4-{[1-isopropyl-2-(trifluoromethyl)-1H-benzimidazol-5-yl]carbonyl}piperazin-1-yl)carbonyl]benzyl}-5,6,7,8-tetrahydrophthalazin-1(2H)-one]"
15,4 nM,"O=C(NC1CCN(C(=O)c2ccco2)CC1)c1cc(Cc2n[nH]c(=O)c3c2NCCC3)ccc1F [Example 726, 2-fluoro-N-[1-(2-furoyl)piperidin-4-yl]-5-[(5-oxo-1,2,3,4,5,6-hexahydropyrido[2,3-d]pyridazin-8-yl)methyl]benzamide]"
